Experiments:
Glucagon receptor [1] = molecular target: T1, Glucagon receptor (Homo sapiens, UniProt P47871); test: Binding affinity of first diastereomer (D1) against human glucagon receptor was determined
Glucagon receptor [2] = molecular target: T1, Glucagon receptor; test: Binding affinity of second enantiomer (E2) against human glucagon receptor was determined
Glucagon receptor [3] = molecular target: T1, Glucagon receptor; test: Binding affinity of first enantiomer (E1) against human glucagon receptor was determined
Glucagon receptor [4] = molecular target: T1, Glucagon receptor; test: Binding affinity of second diastereomer (D2) against human glucagon receptor was determined
[5] = Compound was evaluated for the functional activity by the inhibition of cAMP production

T1 sequence (P47871 whole entry): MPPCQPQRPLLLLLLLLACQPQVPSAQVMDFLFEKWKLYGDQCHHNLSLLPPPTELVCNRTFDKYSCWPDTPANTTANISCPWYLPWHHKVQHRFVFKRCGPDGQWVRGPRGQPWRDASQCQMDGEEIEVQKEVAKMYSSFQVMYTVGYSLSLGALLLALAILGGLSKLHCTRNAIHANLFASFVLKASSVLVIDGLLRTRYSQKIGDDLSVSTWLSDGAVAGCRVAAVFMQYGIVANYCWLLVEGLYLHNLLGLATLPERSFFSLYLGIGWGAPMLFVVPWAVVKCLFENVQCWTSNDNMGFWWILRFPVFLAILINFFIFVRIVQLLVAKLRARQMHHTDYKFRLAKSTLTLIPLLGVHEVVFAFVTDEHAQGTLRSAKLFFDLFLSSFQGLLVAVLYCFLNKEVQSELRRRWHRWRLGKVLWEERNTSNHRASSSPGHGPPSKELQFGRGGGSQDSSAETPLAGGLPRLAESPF

Row | SMILES | IC50 (Glucagon receptor [1]) [nM] | IC50 (Glucagon receptor [2]) [nM] | IC50 (Glucagon receptor [3]) [nM] | IC50 (Glucagon receptor [4]) [nM] | IC50 [5] [nM]
1 | CCc1c(C(C)C)nc(C(C)C)c(C(C)O)c1-c1ccc(F)cc1O (centres undefined) | 20 | 16 | 5000 | 2000 | –
2 | CCCCc1c(C(C)C)nc(C(C)C)c(C(C)O)c1-c1ccc(F)cc1O (centres undefined) | 28 | – | – | 1000 | –
3 | CCCCCc1c(C(C)C)nc(C(C)C)c(C(C)O)c1-c1ccc(F)cc1O (centres undefined) | 30 | 12 | 8000 | 2200 | –

Now from value to compound:

Row | IC50 (Glucagon receptor [1]) [nM] | IC50 (Glucagon receptor [2]) [nM] | IC50 (Glucagon receptor [3]) [nM] | IC50 (Glucagon receptor [4]) [nM] | IC50 [5] [nM] | SMILES
4 | 40 | 25 | 190 | 1100 | – | CCCc1c(C(C)C)nc(C(C)C)c(C(C)O)c1-c1ccccc1O (centres undefined)
5 | 18 | 10 | 8000 | 1000 | 6.5 | CCCc1c(C(C)C)nc(C(C)C)c(C(C)O)c1-c1ccc(F)cc1O (centres undefined)

From ChEMBL document CHEMBL1135956 (Bioorg Med Chem Lett, 2002)
